{"source": "paper PMC11530130", "about": "“Peripherally restricted PICK1 inhibitor mPD5 ameliorates pain behaviors in murine inflammatory and neuropathic pain models” (JCI Insight, 2024)", "target": "T1, recombinant full-length PICK1 (Rattus norvegicus, UniProt Q9EP80)", "T1 construct": "Full length rat PICK1 (pET41) was, as described earlier (1), expressed in BL21-DE3-pLysS; inferred from the pET41 vector and the glutathione-Sepharose capture) (N, cleaved yes); made in house; host or cells: E. coli BL21-DE3-pLysS", "T1 sequence (Q9EP80 whole entry)": "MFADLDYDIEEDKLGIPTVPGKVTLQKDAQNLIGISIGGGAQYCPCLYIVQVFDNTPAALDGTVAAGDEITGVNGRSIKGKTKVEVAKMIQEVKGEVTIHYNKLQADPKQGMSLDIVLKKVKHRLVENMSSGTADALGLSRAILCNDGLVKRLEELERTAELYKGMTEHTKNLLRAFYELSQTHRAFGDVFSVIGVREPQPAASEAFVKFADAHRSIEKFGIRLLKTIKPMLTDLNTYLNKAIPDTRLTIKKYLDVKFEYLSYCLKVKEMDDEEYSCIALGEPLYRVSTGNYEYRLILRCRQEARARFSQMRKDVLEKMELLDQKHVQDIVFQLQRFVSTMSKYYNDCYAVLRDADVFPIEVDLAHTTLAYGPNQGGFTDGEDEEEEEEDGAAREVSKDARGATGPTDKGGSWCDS", "assay": "SEC of recombinant PICK1 in absence or presence of mPD5", "format": "binding", "conditions": "PICK1 40 μM with mPD5 10 μM; from 10.9 mL to 2 peaks at 8 mL and 9 mL", "method": "SUPPORTING INFORMATION: Method Section.\nSex as a biological variable.\nAll peptides were ordered from WuXI AppTec (Shanghai, China) or TAG-Copenhagen […]\nAssessment of solubility and stability of mPD5.\nSolubility was determined by visual inspection of samples dissolved in increasing concentration in 10 mM PBS as judged by full transparency and monophasic appearance.\nStability was addressed by […] for four concentrations (2, 20, 50, and 200 µM), by leaving mPD5 in PBS at 5 °C and 25 °C for 30 days followed by HPLC-UV-MS.\nProtein expression and purification.\nFull length rat PICK1 (pET41) was, as described earlier (1), expressed in BL21-DE3-pLysS and grown at 37 °C, induced at OD600= 0.6 with 1 mM IPTG, and grown for 16 hours at 20 °C.\nCultures were harvested and re-suspended in 50 mM Tris, 125 mM NaCl, 2 mM DTT (Sigma), 1% Triton X-100 (Sigma), 20 µg/mL DNAse 1 and half a tablet of cOmplete protease inhibitor cocktail (Roche) pr. 1 L culture. The resuspended pellets were frozen at -80 °C for later purification. […] PICK1 was eluted on ice and concentration was measured on a NanoDrop 3000.\nFluorescence polarization binding. […]\nbinding surface 96 well plates (Sigma-Aldrich, Ref. no. 3686). The plates were incubated 20 min on ice and the fluorescence polarization was measured on an Omega POLARstar plate reader (BMG LABTECH) using excitation filter of 485 nm and long pass emission filter of 520 nm. […]"}
{"compound": "CCCCCCCCCCCCCC(=O)N(CCOCCOCCC(=O)N[C@@H](Cc1c[nH]cn1)C(=O)N[C@@H](Cc1c[nH]c2ccccc12)C(=O)N[C@@H](CC(C)C)C(=O)N[C@@H](CCCCN)C(=O)N[C@H](C(=O)O)C(C)C)CCOCCOCCC(=O)N[C@@H](Cc1c[nH]cn1)C(=O)N[C@@H](Cc1c[nH]c2ccccc12)C(=O)N[C@@H](CC(C)C)C(=O)N[C@@H](CCCCN)C(=O)N[C@H](C(=O)O)C(C)C", "note": "[mPD5, myristoyl-NPEG4-(HWLKV)2]", "values": [{"measurement": "shift of PICK1 SEC elution (higher-order complexes)", "value": "distinct shift in the peak elution volume of PICK1"}]}
